Some test systems named below: SK-OV-3; 786-0; SF-268; HT-29; NCI-H460; HL-60; COLO 205; KM12; HCT-15; CCRF-CEM; UACC-62; LOX IMVI; SF-295; SN12C; HCT-116; SK-MEL-2; IGROV-1; NCI-H522; RXF 393.
Holding throughout (test): NCI anticancer screen, dose series, 48 h

SMILES strings stand for the structures.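 How tested: cells in 96-well plates exposed to compound for 48 hours at five concentrations. GI50: concentration for 50% inhibition of growth.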 Calls of active or inactive are those of the source. Cut-off read from the data, not from the text of the source: active = GI50 up to about 1.1 µM and inactive = higher.

Take `Cc1nnc2nc(-c3ccc(Cl)cc3Cl)cc(-c3ccc(Cl)cc3)n12`: the GI50 in the test with SK-OV-3 is > 100 µM (inactive); in the test on 786-0 it was > 100 µM (inactive); in the test with SF-268, 83.9 µM (inactive); in the test with HT-29, 20.5 µM (inactive); in the test with NCI-H460 it was 82.6 µM (inactive); in the test on HL-60, > 100 µM (inactive). Also, the GI50 was 13.7 µM (inactive) in the test with COLO 205; > 100 µM (inactive) with KM12; greater than 100 µM with HCT-15; > 100 µM (inactive) in the test with CCRF-CEM; > 100 µM (inactive) in the test with UACC-62; > 100 µM (inactive) in the test with LOX IMVI. Moreover, the GI50 is 91.4 µM (inactive) in the test on SF-295, > 100 µM (inactive) in the test with SN12C and > 100 µM (inactive) in the test with HCT-116.
With `CCOC(=O)C1(C#N)C(c2ccccc2)CC(O)(c2ccc(Cl)cc2)C(C(=O)c2ccc(Cl)cc2)C1c1ccccc1` (centres undefined), the GI50 was 38.6 µM (inactive) in the test on SK-OV-3; > 100 µM (inactive) with 786-0; > 100 µM (inactive) with SF-268; > 100 µM (inactive) in the test on SK-MEL-2; > 100 µM (inactive) in the test on HT-29; > 100 µM (inactive) with NCI-H460. Further, the GI50 in the test on IGROV-1 is > 100 µM (inactive); with NCI-H522 it was 35 µM (inactive); with HL-60, > 100 µM (inactive); in the test with COLO 205, > 100 µM (inactive); with KM12, 34 µM (inactive); with HCT-15, greater than 100 µM. Further, the GI50 in the test with CCRF-CEM was > 100 µM (inactive); in the test with UACC-62 it was > 100 µM (inactive); in the test with LOX IMVI, > 100 µM (inactive); in the test on SF-295, 41 µM (inactive); in the test on RXF 393 it was 37.8 µM (inactive); in the test on SN12C it was > 100 µM (inactive). Besides, in the test on HCT-116, the GI50 was > 100 µM (inactive).
In the case of `O=S(=O)(N/N=C1\CC2CCC1C2)c1ccccc1` (centres undefined), the GI50 in the test on SK-OV-3, with 786-0, with SF-268, with SK-MEL-2, in the test on HT-29 and in the test with NCI-H460 was > 100 µM (inactive) in each case. Moreover, the GI50 with IGROV-1 is > 100 µM (inactive); with NCI-H522 it was > 100 µM (inactive); with HL-60, > 100 µM (inactive); with COLO 205, > 100 µM (inactive); in the test on KM12 it was > 100 µM (inactive); in the test with HCT-15, greater than 100 µM. For the same compound, the GI50 in the test with CCRF-CEM, in the test with UACC-62, with LOX IMVI, with SF-295, with SN12C and with HCT-116 was > 100 µM (inactive) throughout.
Take `O=C1C(Cl)C(c2ccccc2Cl)N1n1cnc2ccccc2c1=O` (centres undefined): the GI50 in the test on SK-OV-3 is 24.2 µM (inactive); with 786-0, 75.7 µM (inactive); in the test with SF-268 it was 54.5 µM (inactive); with SK-MEL-2, 24.7 µM (inactive); in the test with HT-29, > 100 µM (inactive); in the test on NCI-H460 it was > 100 µM (inactive). Further, the GI50 with IGROV-1 was 80.4 µM (inactive); in the test with NCI-H522, 25.8 µM (inactive); in the test on HL-60, 8.69 µM (inactive); in the test with COLO 205, > 100 µM (inactive); with KM12 it was > 100 µM (inactive); with HCT-15, 72.6 µM. For the same compound, the GI50 in the test with CCRF-CEM was 45.8 µM (inactive); with UACC-62, 21.6 µM (inactive); in the test on LOX IMVI it was 19.6 µM (inactive); with SF-295, 29.4 µM (inactive); with RXF 393, 17.5 µM (inactive); in the test on SN12C, > 100 µM (inactive). Besides, in the test with HCT-116, the GI50 is 36.1 µM (inactive).
Take `COc1ccc(C2=C(OC(C)=O)c3cccn3-c3ccccc3S2)cc1`: the GI50 is 2.65 µM (inactive) in the test with SK-OV-3; 2.46 µM (inactive) in the test on 786-0; > 10 µM (inactive) with SF-268; 2.19 µM (inactive) in the test on HT-29; 4.81 µM (inactive) with IGROV-1; 0.512 µM (active) with HL-60. In addition, the GI50 was 2.7 µM (inactive) in the test with COLO 205; 2.62 µM (inactive) in the test on KM12; 1.18 µM with HCT-15; 2.9 µM (inactive) in the test on CCRF-CEM; 2.9 µM (inactive) in the test with UACC-62; 4.55 µM (inactive) with LOX IMVI. The values for the GI50 with SF-295, in the test with RXF 393 and in the test on SN12C were 1.45 µM (inactive), 1.61 µM (inactive) and 1.29 µM (inactive), respectively.
In the case of `O=C(c1ccccc1)c1c(CC(O)c2ccccc2)n(C(=O)c2ccccc2)c2ccccc12` (centres undefined), the GI50 with 786-0 was > 100 µM (inactive); in the test on SF-268, 43.5 µM (inactive); in the test with SK-MEL-2, 36.5 µM (inactive); with HT-29, 63.8 µM (inactive); in the test on NCI-H460, 30.1 µM (inactive); in the test with IGROV-1, 42.6 µM (inactive). For the same compound, the GI50 with NCI-H522 is 17.5 µM (inactive); in the test with HL-60, 31.3 µM (inactive); in the test on COLO 205, 47.6 µM (inactive); with KM12 it was 32 µM (inactive); with HCT-15, 32.7 µM; in the test with CCRF-CEM it was 35.8 µM (inactive). In addition, the results for the GI50 in the test with UACC-62, in the test with SF-295 and in the test on HCT-116 were 46.3 µM (inactive), 28.8 µM (inactive) and 23.1 µM (inactive), respectively.
Consider `CCOC(=O)CCc1c(C)c2c(OC)cc(OC)cc2oc1=O`, for which the GI50 in the test on 786-0 is 34.1 µM (inactive); in the test with SF-268 it was 34.4 µM (inactive); with SK-MEL-2 it was > 100 µM (inactive); in the test with HT-29, 91 µM (inactive); with NCI-H460, > 100 µM (inactive); in the test on NCI-H522, > 100 µM (inactive). Besides, the GI50 with HL-60 is 88.3 µM (inactive); in the test on COLO 205, > 100 µM (inactive); with KM12 it was > 100 µM (inactive); in the test with LOX IMVI, > 100 µM (inactive); with SF-295 it was > 100 µM (inactive); with RXF 393 it was 33.9 µM (inactive). Further, the GI50 was 79.4 µM (inactive) with SN12C and > 100 µM (inactive) with HCT-116.
Take `CC(NO)/C(=N/O)c1ccco1` (centres undefined): the GI50 in the test on 786-0, in the test with SF-268, in the test on SK-MEL-2, with HT-29, with NCI-H460 and in the test on NCI-H522 was > 10 µM (inactive) each time. Moreover, the GI50 is > 10 µM (inactive) with HL-60; > 10 µM (inactive) with COLO 205; > 10 µM (inactive) with KM12; greater than 10 µM with HCT-15; > 10 µM (inactive) in the test with CCRF-CEM; > 10 µM (inactive) with SF-295. The GI50 with RXF 393, with SN12C and in the test on HCT-116 was > 10 µM (inactive) in each case.
On to `CN(C)c1ccc(/C=C2\Oc3ccccc3C2=O)cc1`, for which the GI50 with SK-OV-3, in the test with 786-0, in the test on SF-268, in the test on HT-29, with NCI-H460 and in the test with IGROV-1 was > 100 µM (inactive) in each case. Moreover, the GI50 is 90.4 µM (inactive) with NCI-H522; > 100 µM (inactive) in the test on HL-60; > 100 µM (inactive) with COLO 205; > 100 µM (inactive) in the test on KM12; greater than 100 µM in the test on HCT-15; > 100 µM (inactive) in the test with CCRF-CEM. In addition, the GI50 in the test on UACC-62, in the test on SF-295, in the test with RXF 393, in the test with SN12C and in the test with HCT-116 was > 100 µM (inactive) each time.
For the compound `Oc1cc(-c2ccccn2)nc2cc(F)ccc12`, the GI50 in the test on SK-OV-3 is > 100 µM (inactive); in the test with 786-0, > 100 µM (inactive); with HT-29 it was 49.1 µM (inactive); in the test on NCI-H460 it was 38.7 µM (inactive); with IGROV-1, > 100 µM (inactive); with NCI-H522 it was 25.8 µM (inactive). For the same compound, the GI50 with HL-60 is > 100 µM (inactive); in the test with COLO 205, 74.6 µM (inactive); in the test with KM12 it was 36.1 µM (inactive); in the test on UACC-62 it was 55.8 µM (inactive); with LOX IMVI, 71 µM (inactive); with SF-295, > 100 µM (inactive). In addition, the GI50 with RXF 393 is > 100 µM (inactive); in the test with SN12C, > 100 µM (inactive); in the test with HCT-116, 43.3 µM (inactive).
On to `CCCCCCCCCCCCCCCCCc1nc(Cl)nc(Cl)c1Cl`, for which the GI50 with SK-OV-3, with 786-0, in the test on SF-268, in the test on HT-29, in the test on NCI-H460 and in the test on IGROV-1 was > 100 µM (inactive) throughout. The GI50 was > 100 µM (inactive) in the test with NCI-H522; > 100 µM (inactive) with HL-60; > 100 µM (inactive) in the test on COLO 205; > 100 µM (inactive) in the test with KM12; greater than 100 µM with HCT-15; 34.8 µM (inactive) in the test with CCRF-CEM. Also, the GI50 in the test with UACC-62, with LOX IMVI, in the test with SF-295, in the test on RXF 393, in the test on SN12C and in the test with HCT-116 was > 100 µM (inactive) throughout.
As for `CN(c1ccc(Cl)cc1)S(=O)(=O)c1ccc([N+](=O)[O-])cc1`, the GI50 with SK-OV-3, in the test on 786-0, with SF-268, in the test on SK-MEL-2, in the test with HT-29 and in the test with NCI-H460 was > 100 µM (inactive) each time. For the same compound, the GI50 is > 100 µM (inactive) in the test on IGROV-1; > 100 µM (inactive) in the test with NCI-H522; 59.4 µM (inactive) in the test with HL-60; > 100 µM (inactive) in the test on COLO 205; > 100 µM (inactive) with KM12; greater than 100 µM with HCT-15. Further, the GI50 with CCRF-CEM, in the test on UACC-62, in the test on LOX IMVI, in the test with SF-295, in the test on RXF 393 and in the test on SN12C was > 100 µM (inactive) throughout. For the same compound, the GI50 in the test on HCT-116 is > 100 µM (inactive).
